For the test, the target named is T1, HDM2_25–117 (Homo sapiens, UniProt Q00987).
T1 construct: unnamed fusion partner ('fusion protein'); made in house; host or cells: E. coli BL21
In words: direct binding fluorescence polarization assay. Conditions: fluorescein labeled ligand at 10 nM, varying HDM2; read-out: Kd (HDM2/MDM2). The method, then:
To measure the binding affinity of the functionalized spiroligomers to HDM2 we utilized a direct binding fluorescence polarization assay. The binding of the fluorescein labeled spiroligomers was measured at 10 nM spiroligomer in the presence of varying concentrations of HDM2_25–117 [31]. […] The initial screen of spiroligomers including 3–7 was carried out on the spiroligomer backbone containing all (S) stereochemistry to identify appropriate functional groups to mimic the side chains of Phe19, Trp23 and Leu26 of the p53 helix.
HDM2 Protein Expression. A fusion protein consisting of residues 1-140 (the plasmid was a generous gift from the lab of Neil Zondlo, University of Delaware) was prepared by over-expression.4 Plasmids were used to transform chemically competent E-coli BL21 Cells (Novagen), and a single colony was used to inoculate 2×4 mL LB media culture tubes containing 0.1 mg/mL ampicillin, at 37 °C overnight. These overnight cultures were used to inoculate a 1 L culture of TB media containing 0.1 mg/ml ampicillin. The culture was incubated at 37 °C with shaking at 250 rpm until the optical density at 600 nm reached to 0.9 absorbance units. Protein overexpression was then induced by the addition of 20% isopropyl β-D-thiogalactoside (IPTG) to 0.4 mM final concentration. The culture was then grown for additional 5 hours at 30 °C. Then cells were harvested at 4 °C by centrifugation at 4500 rpm for 20 min.
The cell pellet was resuspended in chilled 1x Binding Buffer (0.5 M NaCl, 20 mMTris-Hcl, 5 mM imidazole, pH 7.9), frozen and stored at -80 °C until protein purification.
Protein Purification. The frozen cell pellet was thawed at 4 °C and lysed by sonication for 2 minutes with 10 sec on and 20 sec off. Cell debris was pelleted by centrifugation for 30 min at 15000 g, 4 °C and the supernatant was filtered through a 0.2 μm syringe filter. A column was prepared using 2 mL Novagen His-Bind suspended resin and resin was washed with 3 volumes DI water. The flow rate maintained was not more than 0.5 ml/min throughout the purification.
The resin was charged with 5 vol 1x Charge Buffer (50 mM NiSO4) and then equilibrated with 3 vol 1x Binding Buffer (5 mM imidazole). After loading the column with prepared extract, the resin was washed with 10 vol 1x Binding Buffer and then with 6 vol 1x Wash Buffer (10 mM imidazole). Protein was then eluted with 6 vol 1x Elution Buffer (1 M imidazole). The eluate was captured in fractions of 0.5 ml. Fractions were assayed with Coomasie blue and desired fractions were combined and dialyzed using spectra/por 6 Dialysis Membranes of 10,000 MWCO (Spectrum Laboratories) in PBS (pH 7.4, 5 mM EDTA and 0.5 mM DTT) for overnight.
The resulting protein was characterized by SDS-PAGE (4-20% gradient gel) for purity analysis and concentrations were measured by UV analysis.
Fresh protein was used immediately for protein binding experiments. […]
Direct Binding Fluorescence Polarization Experiments. Fluorescence polarization experiments were undertaken to assess the ability of spiroligomers to bind HDM2, a protein with hydrophobic cleft that binds the p53 N-terminal helical domain. Fluoresceinated oligomers (conc. of 10 nM) were incubated for 30 minutes at room temperature with sequential dilutions of […]
Background: Polarisation of emitted light reports the rotation of a fluorescent probe.

T1 sequence (Q00987 25-117): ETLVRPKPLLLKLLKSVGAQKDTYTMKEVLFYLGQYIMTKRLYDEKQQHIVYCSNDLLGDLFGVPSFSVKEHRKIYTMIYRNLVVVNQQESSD

Turning to `CC(C)CN1C(=O)[C@@H]2C[C@@]3(CN2C(=O)[C@@]12C[C@H]1C(=O)N(Cc4ccc(Cl)c(Cl)c4)[C@]4(C[C@H]5C(=O)N[C@@H](CCc6ccccc6)C(=O)N5C4)C(=O)N1C2)NC(=O)[C@@H](CCCCNC(=S)Nc1ccc2c(c1)C(=O)OC21c2ccc(O)cc2Oc2cc(O)ccc21)NC3=O` [Compound 12], the Kd was determined as 1.6 µM.

As for `CC(C)CN1C(=O)[C@@H]2C[C@@]3(CN2C(=O)[C@@]12C[C@H]1C(=O)N(Cc4ccc(Cl)c(Cl)c4)[C@@]4(C[C@H]5C(=O)N[C@H](CCc6ccccc6)C(=O)N5C4)C(=O)N1C2)NC(=O)[C@@H](CCCCNC(=S)Nc1ccc2c(c1)C(=O)OC21c2ccc(O)cc2Oc2cc(O)ccc21)NC3=O` [Compound 11], the Kd is 4.6 µM.

On to `CC(C)CN1C(=O)[C@@H]2C[C@@]3(CN2C(=O)[C@@]12C[C@H]1C(=O)N(Cc4ccc(Cl)c(Cl)c4)[C@@]4(C[C@@H]5C(=O)N[C@H](CCc6ccccc6)C(=O)N5C4)C(=O)N1C2)NC(=O)[C@@H](CCCCNC(=S)Nc1ccc2c(c1)C(=O)OC21c2ccc(O)cc2Oc2cc(O)ccc21)NC3=O` [Compound 10], for which the Kd was determined as 4.8 µM.

As for `CC(C)CN1C(=O)[C@@H]2C[C@@]3(CN2C(=O)[C@@]12C[C@H]1C(=O)N(Cc4ccc(Cl)c(Cl)c4)[C@]4(C[C@@H]5C(=O)N[C@@H](CCc6ccccc6)C(=O)N5C4)C(=O)N1C2)NC(=O)[C@H](CCCCNC(=S)Nc1ccc2c(c1)C(=O)OC21c2ccc(O)cc2Oc2cc(O)ccc21)NC3=O` [Compound 9], the Kd amounted to 6.7 µM.

Consider `CC(C)CN1C(=O)[C@@H]2C[C@@]3(CN2C(=O)[C@@]12C[C@H]1C(=O)N(Cc4ccc(Cl)c(Cl)c4)[C@@]4(C[C@H]5C(=O)N[C@H](CCc6ccccc6)C(=O)N5C4)C(=O)N1C2)NC(=O)[C@H](CCCCNC(=S)Nc1ccc2c(c1)C(=O)OC21c2ccc(O)cc2Oc2cc(O)ccc21)NC3=O` [Compound 8], for which the Kd is 23 µM.

On to `CC(C)CCN1C(=O)[C@@H]2C[C@@]3(CN2C(=O)[C@@]12C[C@H]1C(=O)N(Cc4ccc(Cl)c(Cl)c4)[C@]4(C[C@H]5C(=O)N[C@@H](Cc6ccccc6)C(=O)N5C4)C(=O)N1C2)NC(=O)[C@H](CCCCNC(=S)Nc1ccc2c(c1)C(=O)OC21c2ccc(O)cc2Oc2cc(O)ccc21)NC3=O` [Compound 5], for which the Kd is 6.3 µM.

For `CC(C)CN1C(=O)[C@@H]2C[C@@]3(CN2C(=O)[C@@]12C[C@H]1C(=O)N(Cc4cccc5ccccc45)[C@]4(C[C@H]5C(=O)N[C@@H](Cc6ccccc6)C(=O)N5C4)C(=O)N1C2)NC(=O)[C@H](CCCCNC(=S)Nc1ccc2c(c1)C(=O)OC21c2ccc(O)cc2Oc2cc(O)ccc21)NC3=O` [Compound S10], the Kd worked out at 16 µM.

The values are drawn from publication PMC3475717, “A Spiroligomer α-Helix Mimic That Binds HDM2, Penetrates Human Cells and Stabilizes HDM2 in Cell Culture” (PLoS ONE, 2012).
